Test results published in US4125707A, “Protected pseudotrisaccharide intermediate for paromomycin and neomycin derivatives” (Societa' Farmaceutici Italia S.p.A., priority 1974, dated 1978).
≈ marks a conversion by molar mass, not a printed value. Read-outs that look alike come from different tables or passages of the source.

Assays:
[1] = system: Staphilococcus aureus; experiment: MIC, serial dilutions in liquid medium, Staphylococcus aureus; assay type: cell-based; details: 24 h
Description: (§1) The "in vitro" tests were carried out with the method of serial dilutions in liquid medium (Nutrient Broth Difco). The minimal inhibitory concentration (MIC) was determined after 24 h incubation at 37° C.

[2] = system: Klebsiella pneumoniae; experiment: MIC, serial dilutions in liquid medium, Klebsiella pneumoniae; assay type: cell-based; details: 24 h
Description: as §1

[3] = system: Escherichia coli B; experiment: MIC, serial dilutions in liquid medium, Escherichia coli B; assay type: cell-based; details: 24 h, 37° C, Nutrient Broth Difco
Description: as §1

[4] = system: E.coli 526; experiment: MIC, serial dilutions in liquid medium, E. coli 526 (resistant, NKT I); assay type: cell-based, Escherichia coli
Description: as §1
(§2) The resistance to the aminosidine is due, in the case of E. coli 526, to the production of an aminoglycoside inactivating enzyme (NKT I); the other strains are clinical isolates whose mechanism of resistance is not know.

[5] = system: E.coli K12; experiment: MIC, serial dilutions in liquid medium, E. coli K12; assay type: cell-based; details: Escherichia coli, 24 h, 37° C, Nutrient Broth Difco
Description: as §1

[6] = system: Proteus sp.1; experiment: MIC, serial dilutions in liquid medium, Proteus sp.1; assay type: cell-based; details: 24 h, 37° C, Nutrient Broth Difco
Description: as §1, §2

[7] = system: Proteus sp.2; experiment: MIC, serial dilutions in liquid medium, Proteus sp.2; assay type: cell-based; details: 24 h
Description: as §1, §2

[8] = system: Proteus sp.3; experiment: MIC, serial dilutions in liquid medium, Proteus sp.3; assay type: cell-based; details: 24 h, 37° C, Nutrient Broth Difco
Description: as §1, §2

[9] = system: Proteus sp.4; experiment: MIC, serial dilutions in liquid medium, Proteus sp.4; assay type: cell-based; details: 24 h, 37° C, Nutrient Broth Difco
Description: as §1, §2

[10] = system: Proteus sp.5; experiment: MIC, serial dilutions in liquid medium, Proteus sp.5; assay type: cell-based; details: 24 h
Description: as §1, §2

[11] = system: Staphylococcus aureus; experiment: therapeutic activity in mice experimentally infected with Staphylococcus aureus; assay type: in vivo; details: sc
Description: (§3) The therapeutic activity was assessed in mice experimentally infected with Staphylococcus aureus and treated (4 h after infection) with a single dose of the compound by the subcutaneous route.

[12] = system: Ochromonas malhamensis; experiment: growth inhibition of Ochromonas malhamensis in liquid nutrient medium; assay type: cell-based
Description: (§4) Other tests were carried out on algae and protozoa in order to evaluate the sensitivity of eukaryotic organisms to this new molecule (determination of MIC in liquid nutrient medium).
(§5) (*)Dose inhibiting 50% of growth (.LAMBDA.) or of protein

[13] = system: Euglena gracilis; experiment: growth inhibition of Euglena gracilis in liquid nutrient medium; assay type: cell-based
Description: as §4, §5

[14] = system: Tetrahymena geleei; experiment: growth inhibition of Tetrahymena geleei in liquid nutrient medium; assay type: cell-based
Description: as §4, §5

[15] = system: Entamoeba histolytica; experiment: growth inhibition of Entamoeba histolytica in liquid nutrient medium; assay type: cell-based
Description: as §4

[16] = system: ribosomes from Escherichia coli (7OS); experiment: inhibition of protein synthesis in cell-free system, 70S ribosomes; assay type: biochemical; details: for Activity (ID 50%), dose inhibiting 50% of protein synthesis: cell-free system, 70S ribosomes
Description: (§6) Finally, compound 224 was tested as an inhibitor of protein synthesis on cell-free systems containing ribosomes from Escherichia coli (7OS) or from Saccharomyces cerevisiae (8OS).
as §5

[17] = system: ribosomes from Saccharomyces cerevisiae (8OS); experiment: inhibition of protein synthesis in cell-free system, 80S ribosomes; assay type: biochemical
Description: as §6, §5

[18] = acute toxicity in mice; details: mouse, in vivo, sc, subcutaneous route
Description: There were also carried out comparative trials for determining the actue toxicity and ototoxicity. The LD50 values in mice by the subcutaneous route are: Aminosidine, 700 mg/kg; Compound 224, 1000 mg/kg.

[19] = system: resistant strains (E. coli, Proteus sp.); experiment: antibacterial activity on resistant strains; assay type: cell-based; details: for growth of resistant strains (in words): E. coli, Proteus sp., at concentrations at which 224 prevents growth
Description: as §1, §2

[20] = system: algae and protozoa; experiment: growth of algae and protozoa; assay type: cell-based; details: eukaryotic microorganisms, Table 2
Description: as §4

[21] = system: bacteria sensitive to the aminosidine; experiment: antibacterial activity in vitro and in vivo on bacteria sensitive to aminosidine
Description: as §1, §3

[22] = 37° C, Nutrient Broth Difco, read-out: MIC

SMILES | MIC [3] [µg/mL] | MIC [5] [µg/mL] | MIC [6] [µg/mL] | MIC [8] [µg/mL] | MIC [9] [µg/mL] | Activity (ID 50%), dose inhibiting 50% of growth [12] | Activity (ID 50%), dose inhibiting 50% of growth [13] | Activity (ID 50%), dose inhibiting 50% of growth [14] | Activity (ID 50%), dose inhibiting 50% of growth [15] | Activity (ID 50%), dose inhibiting 50% of protein synthesis [16] | Activity (ID 50%), dose inhibiting 50% of protein synthesis [17] | LD50 [18] [mg/kg] | growth of resistant strains (in words) [19] | effect on growth of algae and protozoa (in words) [20] | also measured
NC[C@@H]1O[C@H](O[C@H]2[C@@H](O)[C@H](O[C@@H]3[C@@H](O)[C@H](N)C[C@H](N)[C@H]3O[C@H]3O[C@H](CO)[C@@H](O)[C@H](O)[C@H]3N)O[C@@H]2CO)[C@H](N)[C@@H](O)[C@@H]1O [Aminosidine, reference compound] | 6.2 (≈ 10.1 µM) | 500 (≈ 812 µM) | 500 (≈ 812 µM) | > 500 | > 500 | 1.56 | 12.5 | 12.5 | 1 | 30 | 65 | 700 | completely inactive | strong inhibitor of the organisms tested | MIC [1]: 3.1 µg/mL (≈ 5.04 µM); MIC [2]: 1 µg/mL (≈ 1.62 µM); MIC ([4]; Escherichia coli, 526, 24 h): > 500 µg/mL; MIC [7]: > 500 µg/mL; MIC [10]: > 500 µg/mL; ED50 ([11]; 4 h, read-out: DT50): 25 mg/kg
NC[C@@H]1O[C@H](O[C@H]2[C@@H](O)[C@H](O[C@@H]3[C@@H](O)[C@H](N)C[C@H](N)[C@H]3O[C@H]3O[C@H](CN)[C@@H](O)[C@H](O)[C@H]3O)O[C@@H]2CO)[C@H](N)[C@@H](O)[C@@H]1O [compound 224] | 12.5 (≈ 20.3 µM) | 125 (≈ 203 µM) | 125 (≈ 203 µM) | 125 (≈ 203 µM) | 125 (≈ 203 µM) | > 100 | > 100 | > 100 | > 20 | 40 | > 500 | 1000 | prevents the growth of resistant strains | does not affect the growth of algae and protozoa | MIC [1, 22]: 6.2 µg/mL (≈ 10.1 µM); MIC [2, 22]: 2 µg/mL (≈ 3.25 µM); MIC ([4]; Escherichia coli, 526, 24 h, 37° C, Nutrient Broth Difco, resistant strain, read-out: MIC): 100 µg/mL (≈ 162 µM); MIC [7, 22]: 250 µg/mL (≈ 406 µM); MIC [10, 22]: 250 µg/mL (≈ 406 µM); ED50 ([11]; mice, single subcutaneous dose 4 h after infection, read-out: DT50 (the source's name)): 50 mg/kg; selective inhibition of protein synthesis (in words) ([16]; 7OS in comparison with 8OS ribosomes): selective inhibition of protein synthesis; antibacterial activity compared with aminosidine, resistant strains (in words) ([19]; resistant strains): clearly superior on resistant strains; antibacterial activity in vitro and in vivo (in words) ([21]; bacteria sensitive to the aminosidine): remarkable antibacterial activity in vitro and in vivo; antibacterial activity compared with aminosidine, sensitive strains (in words) ([21]; sensitive strains): of the same order of magnitude of that of aminosidine
